This is an account of results in patent US6087334A, “Anti-diabetic peptides” (Amylin Pharmaceuticals, Inc., priority 1998, dated 2000).

Test [1] addresses T1, C1a receptor (C1a-type calcitonin receptor) (Rattus norvegicus, UniProt P32214).
T1 construct: expressed in transfected cells
T1 sequence (P32214 25-479 isoform P32214-2 limits assumed): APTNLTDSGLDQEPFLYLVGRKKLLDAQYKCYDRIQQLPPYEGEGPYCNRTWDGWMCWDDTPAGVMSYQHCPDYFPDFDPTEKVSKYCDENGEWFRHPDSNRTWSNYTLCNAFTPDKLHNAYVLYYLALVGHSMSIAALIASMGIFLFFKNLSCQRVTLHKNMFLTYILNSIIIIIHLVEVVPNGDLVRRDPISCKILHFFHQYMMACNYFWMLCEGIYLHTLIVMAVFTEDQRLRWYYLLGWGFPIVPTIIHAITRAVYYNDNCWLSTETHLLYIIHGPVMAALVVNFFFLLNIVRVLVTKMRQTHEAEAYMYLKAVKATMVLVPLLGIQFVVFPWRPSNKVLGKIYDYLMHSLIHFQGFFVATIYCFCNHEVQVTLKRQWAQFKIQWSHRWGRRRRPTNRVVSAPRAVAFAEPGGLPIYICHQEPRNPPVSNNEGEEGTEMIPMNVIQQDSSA
The test can be described thus: C1a/293 competitive binding, displacement of [125I]-human calcitonin (Example C). To be noted: HEK293 plasma membranes (C1a/293), [125I]-human calcitonin 20 pM. On the procedure: Peptide compounds of the present invention may be evaluated for binding to the C1a receptor using the procedures described in Example C. The C1a receptor is the predominant mammalian calcitonin receptor subtype. C1a pcDNA construction and transfection were carried out as previously described (Albrandt et al. 1993, FEBS Letters, 325:225-232). HEK293 cell lines showing stable expression of the rat C1a-type calcitonin receptor (C1a/293) or the human C1a-type calcitonin receptor (1154/293) were selected by G418 resistance and limiting dilution culture methods. Plasma membranes were collected from homogenized HEK293 cells and used in the receptor binding assay. Individual test peptides at concentrations spanning 6 log units starting at around 10^-6 M were examined for their ability to displace [^125 I]-human calcitonin from the plasma membrane preparation using a 96-well microtiter plate format and scintillation counting with a Wallac LKB Beta plate counter. Competitive binding curves were constructed. Non-specific binding was measured in the presence of 100 nM calcitonin. Peptide potencies (IC50 's for competitive binding) were calculated by non-linear regression using Prism™ (version 2.01, GraphPAD Software, San Diego, Calif.).
C1a/293 Competitive Binding Studies:
Compounds were evaluated for competition in binding to the C1a receptor as follows:
(§1) Reference peptides used in these studies were purchased from Bachem (Torrance, Calif.). All other chemicals were of the highest commercial grade. [^35 S]-GTPγS was purchased from NEN Life Science Products, Inc., Pittsburgh, Pa. [^125 I]-human calcitonin was purchased from Amersham Pharmacia Biotech, Inc., Piscataway, N.J.
Methods for C1a pcDNA construction and transfection have been previously described (Albrandt, et al. 1993). HEK293 cell lines stably expressing the rat C1a-type calcitonin receptor (C1a/293) or the human C1a-type calcitonin receptor (1154/293) were selected by G418 resistance and limiting dilution culture methods.
(§2) Confluent cells were detached from tissue culture flasks by incubation with 5 mM EDTA in PBS. Cells were homogenized in ice-cold 20 mM HEPES, pH 7.4 with a Polytron homogenizer. Plasma membranes were collected using three cycles of washing in fresh buffer followed by centrifugation for 15 minutes at 48,000×g. The final membrane pellet was resuspended in 20 mM HEPES buffer containing 0.2 mM phenylmethylsulfonyl fluoride (PMSF) and stored at -70° C.
Assay buffer contained 5 μg/mL bestatin, 1 μg/mL phosphoramidon, 1 mg/mL bovine serum albumin (fraction V), 1 mg/mL bacitracin, 1 mM MgCl2, and 20 mM HEPES, pH 7.4. Membranes (2-5 μg membrane protein/well), [^125 I]-human calcitonin (20 pM), and peptides were combined in 200 μL buffer in 96-well microtiter plates. After a 60 minute incubation at room temperature, well contents were harvested onto polyethyleneimine-treated GF/B glass fiber pads using a Tomtec Mach II plate harvestor (Hamden, Conn.). Dried pads were combined with scintillant and counted on a Wallac LKB Beta Plate scintillation counter (Gaithersburg, Md.). For competitive binding curves, samples were run in duplicate over a 6 log concentration range starting at 10^-6 or 10^-7 M. Non-specific binding was measured in the presence of 100 nM human calcitonin.
(In general: In a radioligand displacement assay an active substance lowers the binding of a labelled ligand.)

The target in test [2] is T1, C1a receptor (C1a-type calcitonin receptor). The test can be described thus: biochemical. To be noted: HEK293 plasma membranes, [35S]-GTPγS 200 pM; read-out: ED50 (nM) Example B (C1a GTPγS).
Source text: Peptide compounds of the present invention may be evaluated for agonist activity using the procedures described in Example B. The plasma membrane preparation of a 7-transmembrane-G-protein coupled receptor (GPCR) contains not only the receptor but also the G-proteins which constitute the first step in the intracellular signal transduction process when the receptor is activated by an agonist ligand. […] Agonist activation of a GPCR is accompanied by displacement of GDP by GTP from this site. Thus, measurement of the binding of a radiolabelled ligand, namely [^35 S]-GTPγS, for this binding site constitutes a measure of agonist potency for a given ligand. For agonism at the C1a receptor, a similar membrane preparation to that described below for the C1a binding studies is used. C1a pcDNA construction and transfection were carried out as previously described (Albrandt et al. 1993, FEBS Letters, 325:225-232). HEK293 cell lines showing stable expression of the rat C1a-type calcitonin receptor (C1a/293) or the human C1a-type calcitonin receptor (1154/293) were selected by G418 resistance and limiting dilution culture methods. Plasma membranes were collected from homogenized HEK293 cells and used in the [^35 S]-GTPγS assay. Individual test peptides at concentrations spanning 6 log units starting at around […] were examined for their ability to bind [^35 S]-GTPγS. Maximum agonist-specific binding was measured in the presence of 1 μM human calcitonin, constitutive binding was measured in the presence of buffer alone. Peptide potencies (EC50 's for concentration response curves) were calculated by non-linear regression using Prism™ (version 2.01, GraphPAD Software, San Diego, Calif.).
[^35 S]-GTPγS C1a Agonist Studies
Evaluation of the agonist activity of compounds versus the C1a receptor was carried out as follows:
as §1
Methods for C1a pcDNA construction and transfection have been previously described (Albrandt, et al. 1993, FEBS Letters, 325:225-232). HEK293 cell lines stably expressing the rat C1a-type calcitonin receptor (C1a/293) or the human C1a-type calcitonin receptor (1154/293) were selected by G418 resistance and limiting dilution culture methods.
as §2
Assay buffer contained 1 μM GDP, 1 mM EDTA, 5 mM MgCl2, 20 mM Hepes, and 150 mM NaCl, pH 7.4. Membranes (7.5 μg membrane protein/well), [^35 S]-GTPγS (200 pM), and peptides were combined in 200 μL buffer in 96-well microtiter plates. After a 75 minute incubation at room temperature, well contents were harvested onto GF/B glass fiber pads using a Tomtec Mach II plate harvestor (Hamden, Conn.). Dried pads were combined with scintillant and counted on a Wallac LKB Beta Plate scintillation counter. For concentration response curves, samples were run in duplicate over a 6 log concentration range starting at 10^-6 M or 10^-7 M. Maximum agonist-specific binding was measured in the presence of 1 μM human calcitonin, constitutive binding was measured in the presence of buffer alone.
Peptide potencies (1C50 's for competitive binding, and EC50 's for concentration response curves) were calculated by non-linear regression using Prism (version 2.01, GraphPAD Software, San Diego, Calif.).
(GTPγS resists hydrolysis and so accumulates on activated G proteins.)

Where a SMILES comes first, the peptide text is derived from it. Bridges are numbered along the chain shown (N, C = ends). The star is where a group is joined. Pentanoyl(4-Me) = CC(C)CCC(=O)*

For the compound `CC(C)C[C@H](NC(=O)[C@H](CCCNC(=N)N)NC(=O)[C@H](CCC(N)=O)NC(=O)[C@@H](NC(=O)[C@H](C)NC(=O)[C@@H]1CSSC[C@H](NC(=O)[C@@H](N)CCCCN)C(=O)N[C@@H](CC(N)=O)C(=O)N[C@@H](C(C)C)C(=O)N[C@@H](C)C(=O)N[C@@H]([C@@H](C)O)C(=O)N1)[C@@H](C)O)C(=O)N[C@@H](C)C(=O)N[C@@H](CC(N)=O)C(=O)N[C@@H](Cc1ccccc1)C(=O)N[C@@H](CC(C)C)C(=O)N[C@H](C(=O)N[C@@H](CCCNC(=N)N)C(=O)N[C@@H](CO)C(=O)N[C@@H](CO)C(=O)NCC(=O)N[C@@H](Cc1ccc(O)cc1)C(N)=O)C(C)C` [Example 2] (H-KCNVATCATQRLANFLVRSSGY-NH2; disulfide 2-7), in test [1], the IC50 came out at 0.128 nM. For the same compound, the EC50 in test [2] stood at 2.6 nM.

For `CC(C)C[C@H](NC(=O)[C@H](CCCNC(=N)N)NC(=O)[C@H](CCC(N)=O)NC(=O)[C@@H](NC(=O)[C@H](C)NC(=O)[C@@H]1CSSC[C@H](NC(=O)[C@@H](N)CCCCN)C(=O)N[C@@H](CC(N)=O)C(=O)N[C@@H]([C@@H](C)O)C(=O)N[C@@H](C)C(=O)N[C@@H]([C@@H](C)O)C(=O)N1)[C@@H](C)O)C(=O)N[C@@H](C)C(=O)N[C@@H](CC(N)=O)C(=O)N[C@@H](Cc1ccccc1)C(=O)N[C@@H](CC(C)C)C(=O)N[C@H](C(=O)N[C@@H](CCCNC(=N)N)C(=O)N[C@@H](C)C(=O)N[C@@H](CO)C(=O)NCC(=O)N[C@@H](Cc1ccc(O)cc1)C(N)=O)C(C)C` [Example 10] (H-KCNTATCATQRLANFLVRASGY-NH2; disulfide 2-7), the IC50 in test [1] turned out to be 4.7 nM. Also, in test [2], the EC50 is 8 nM.

On to `CC(C)C[C@H](NC(=O)[C@H](CCCNC(=N)N)NC(=O)[C@H](CCC(N)=O)NC(=O)[C@@H](NC(=O)[C@H](C)NC(=O)[C@@H]1CSSC[C@H](NC(=O)[C@@H](N)CCCCN)C(=O)N[C@@H](CC(N)=O)C(=O)N[C@@H]([C@@H](C)O)C(=O)N[C@@H](C)C(=O)N[C@@H]([C@@H](C)O)C(=O)N1)[C@@H](C)O)C(=O)N[C@@H](C)C(=O)N[C@@H](CC(N)=O)C(=O)N[C@@H](Cc1ccccc1)C(=O)N[C@@H](CC(C)C)C(=O)N[C@H](C(=O)N[C@@H](Cc1c[nH]cn1)C(=O)N[C@@H](CO)C(=O)N[C@@H](CO)C(=O)NCC(=O)N[C@@H](Cc1ccc(O)cc1)C(N)=O)C(C)C` [Example 11] (H-KCNTATCATQRLANFLVHSSGY-NH2; disulfide 2-7), for which the IC50 in test [1] is 8.3 nM. For the same compound, in test [2], the EC50 was 14 nM.

With `CC(C)CCC(=O)N[C@@H](CC(C)C)C(=O)N[C@@H](CO)C(=O)N[C@H](C(=O)N[C@@H](C)C(=O)N[C@@H](C)C(=O)N[C@H](C(=O)N[C@@H](C)C(=O)N[C@@H](CCCNC(=N)N)C(=O)N[C@@H](CC(C)C)C(=O)N[C@@H](C)C(=O)N[C@@H](C)C(=O)N[C@@H](Cc1ccccc1)C(=O)N[C@@H](CC(C)C)C(=O)N[C@@H](C)C(=O)N[C@@H](CCCNC(=N)N)C(=O)N[C@@H](CO)C(N)=O)[C@@H](C)O)[C@@H](C)O` [Example 4] ({Pentanoyl(4-Me)}-LSTAATARLAAFLARS-NH2), in test [1], the IC50 was determined as 0.66 nM. Moreover, the EC50 in test [2] was 0.73 nM.

Regarding `CC(C)C[C@H](NC(=O)[C@H](Cc1ccccc1)NC(=O)[C@H](CC(N)=O)NC(=O)[C@H](C)NC(=O)[C@H](CC(C)C)NC(=O)[C@H](CCCNC(=N)N)NC(=O)[C@H](CCC(N)=O)NC(=O)[C@@H](NC(=O)[C@H](C)NC(=O)[C@@H]1CSSC[C@H](NC(=O)[C@@H](N)CCCCN)C(=O)N[C@@H](CC(N)=O)C(=O)N[C@@H]([C@@H](C)O)C(=O)N[C@@H](C)C(=O)N[C@@H]([C@@H](C)O)C(=O)N1)[C@@H](C)O)C(=O)N[C@@H](C)C(=O)N[C@@H](CCCNC(=N)N)C(=O)N[C@@H](CO)C(=O)N[C@@H](CO)C(=O)NCC(=O)N[C@@H](Cc1ccc(O)cc1)C(N)=O` [Example 16] (H-KCNTATCATQRLANFLARSSGY-NH2; disulfide 2-7), in test [1], the IC50 came out at 20 nM. In addition, the EC50 in test [2] is 1.4 nM.

What is called IC50 is the concentration at which inhibition is half-maximal.
